Data published in patent US12642856B2, “Degraders of hepatitis C virus NS3/4A protein” (DANA-FARBER CANCER INSTITUTE, INC., priority 2018, dated 2026).
Where two headings read alike, the source gives them in different places.

Key:
[1] = biological target: T1, full-length HCV NS3 protein fused to eGFP (UniProt P27958+Q96SW2); assay: Transient cellular HCV NS3 degradation assay; type: cell-based, Hepatitis C virus; settings: for degradation of HCV NS3 by Western blot: 4-hour and 24-hour treatments, NS3-eGFP and NS3-eGFP-mCherry fusion proteins; for DC50: read-out: IC50, concentration that led to a 50% reduction in NS3-eGFP accumulation, flow cytometry; for DC50 / degradation of transiently expressed HCV NS3 (decrease in NS3-eGFP abundance): 4 hour treatment; for degradation of transiently expressed HCV NS3 (decrease in NS3-eGFP abundance): increasing concentrations
T1 construct: expressing the full-length HCV NS3 protein fused to eGFP; mCherry via FMVD 2A self-cleavage linker (C, cleaved yes); expressed in transfected cells
Description: A system was set up to monitor NS3 degradation in the absence of other processes of the infectious viral cycle. […] Expressed in the absence of its cofactor, NS4A, the NS3 protein lacks any enzymatic activity, and the abundance of the NS3-eGFP fusion protein can be reliably monitored by eGFP fluorescence. Since the mCherry portion of the fusion protein is cleaved off during translation, its abundance in cells is not affected by small molecule-induced degradation of NS3-eGFP, and thus it serves as a control for protein expression. […]
The NS3 expressing cells were treated with increasing concentrations of compounds 13 and 22 for 4 hours. […] Compound 11 is an alpha-hydroxylamide analog of compound 13 that cannot form a covalent bond with the catalytic serine of the HCV NS3/4A protease due to a modification of the α-ketoamide group. […] The NS3 expressing cells were treated with increasing concentrations of compounds for 4 hours.

[2] = biological target: T2, HCV NS3 fusion protein (UniProt P27958+Q96SW2); assay: NS3 degradation competition assay with lenalidomide; type: cell-based, Hepatitis C virus; settings: Western blot; for effect of lenalidomide on compound-induced degradation of NS3: excess of cereblon ligand lenalidomide
T2 construct: expressing the full-length HCV NS3 protein fused to eGFP; mCherry via FMVD 2A self-cleavage linker (C, cleaved yes); expressed in transfected cells
Description: The expression of the NS3 fusion protein was induced prior to the treatment of the NS3 expressing cells with an excess of the cereblon ligand lenalidomide.
FIG. 3 is a photograph of a Western blot showing degradation of HCV NS3 in the absence and presence of lenalidomide.

[3] = system: HCV subgenomic replicon in Huh7.5 cells; assay: Antiviral subgenomic replicon assay; type: cell-based; settings: Hepatitis C virus, read-out: IC50, 50% reduction in reporter (luciferase) expression levels
Protocol: (§1) The antiviral activity of the degraders was evaluated in cell culture in a subgenomic replicon assay and an infectious assay. In the subgenomic replicon assay, the hepatoma cell line Huh7.5 was transfected with a HCV subgenomic replicon and treated with small molecules. The luciferase activity encoded by the subgenomic replicon served as a measure for viral replication. In the infectious assay, Huh7.5 cells were infected with HCV, and treated with small molecules. The amount of infectious virus released to the supernatants after treatment with the small molecule degraders served as a measure for their antiviral activity. […] The activity of the compounds described herein is dependent on protein degradation mediated by the cereblon E3 ligase, as HCV NS3 levels are partially rescued in the cereblon-deficient Huh7.5 cell line.
Huh7.5 cells were electroporated with the HCV subgenomic replicon and treated after 24 hours with a range of small molecule concentrations. The luciferase activity encoded by the replicon was measured in cells at 48 hours post-electroporation/24 hours post-treatment. The concentration of compound that led to a 50% reduction in reporter expression levels (IC50) was determined by non-linear regression.

[4] = system: HCV in Huh7.5 cells; assay: Antiviral infectious assay (TCID50); type: cell-based, Hepatitis C virus; settings: Hepatitis C virus; Huh7.5 cells; 48 hours post-infection/24 hours post-treatment; TCID50; read-out: IC50, 50% reduction in viral titers
Protocol: as §1
Huh7.5 cells were infected with HCV and treated after 24 hours with a range of small molecule concentrations. The amount of infectious virus released to the supernatants at 48 hours post-infection/24 hours post-treatment was measured using a 50% tissue infectious dose (TCID50) assay. The concentration of compound that led to a 50% reduction in viral titers (IC50) was determined by non-linear regression.

[5] = Huh7.5 cells, 48 hours post-electroporation/24 hours post-treatment

SMILES | degradation of HCV NS3 by Western blot [1] | DC50 [1] [nM] | effect of lenalidomide on compound-induced degradation of NS3 [2] | degradation of transiently expressed HCV NS3 (decrease in NS3-eGFP abundance) [1] | degradation of NS3 in the presence or absence of lenalidomide [2] | IC50 [3, 5] [nM] | further results
CCC[C@H](NC(=O)[C@@H]1[C@H]2CCC[C@H]2CN1C(=O)[C@@H](NC(=O)[C@@H](NC(=O)c1cnc(C(=O)NCCCCCCNc2cccc3c2CN(C2CCC(=O)NC2=O)C3=O)cn1)C1CCCCC1)C(C)(C)C)C(=O)C(=O)NC1CC1 (stereo partly drawn) [Compound 1, N2-((S)-1-cyclohexyl-2-((S)-1-((1S,3aR,6aS)-1-((S)-1-(cyclopropylamino)-1,2-dioxohexan-3-ylcarbamoyl)hexahydrocyclopenta[c]pyrrol-2(1H)-yl)-3,3-dimethyl-1-oxobutan-2-ylamino)-2-oxoethyl)-N5-(6-(2-(2,6-dioxopiperidin-3-yl)-1-oxoisoindolin-4-ylamino)hexyl)pyrazine-2,5-dicarboxamide] | specific reduction in steady-state abundance | 669 | Lenalidomide inhibited degradation of NS3 |  |  |  | IC50 ([3]; Huh7.5, 48 h): 3040 nM
CCC[C@H](NC(=O)[C@@H]1[C@H]2CCC[C@H]2CN1C(=O)[C@@H](NC(=O)[C@@H](NC(=O)c1cnc(C(=O)NCCOCCOCCOc2cc3c4c(cccc4c2)C(=O)N(C2CCC(=O)N(C)C2=O)C3=O)cn1)C1CCCCC1)C(C)(C)C)C(=O)C(=O)NC1CC1 (stereo partly drawn) [Compound 22, N2-((S)-1-cyclohexyl-2-((S)-1-((1S,3aR,6aS)-1-((S)-1-(cyclopropylamino)-1,2-dioxohexan-3-ylcarbamoyl)hexahydrocyclopenta[c]pyrrol-2(1H)-yl)-3,3-dimethyl-1-oxobutan-2-ylamino)-2-oxoethyl)-N5-(2-(2-(2-(2-(1-methyl-2,6-dioxopiperidin-3-yl)-1,3-dioxo-2,3-dihydro-1H-benzo[de]isoquinolin-5-yloxy)ethoxy)ethoxy)ethyl)pyrazine-2,5-dicarboxamide] |  |  |  | did not degrade HCV NS3 | no significant degradation of NS3 |  | binding to cereblon (concluded from degradation assay) ([1]; N-methylated glutarimide negative controls): unable to bind cereblon
CCC[C@H](NC(=O)[C@@H]1[C@H]2CCC[C@H]2CN1C(=O)[C@@H](NC(=O)[C@@H](NC(=O)c1cnc(C(=O)NCCCCCCCC(=O)Nc2cccc3c2CN(C2CCC(=O)NC2=O)C3=O)cn1)C1CCCCC1)C(C)(C)C)C(=O)C(=O)NC1CC1 (stereo partly drawn) [Compound 4, N2-((S)-1-cyclohexyl-2-((S)-1-((1S,3aR,6aS)-1-((S)-1-(cyclopropylamino)-1,2-dioxohexan-3-ylcarbamoyl)hexahydrocyclopenta[c]pyrrol-2(1H)-yl)-3,3-dimethyl-1-oxobutan-2-ylamino)-2-oxoethyl)-N5-(8-(2-(2,6-dioxopiperidin-3-yl)-1-oxoisoindolin-4-ylamino)-8-oxooctyl)pyrazine-2,5-dicarboxamide] | specific reduction in steady-state abundance | 2680 | Lenalidomide inhibited degradation of NS3 |  |  | 1320 | 
CCC[C@H](NC(=O)[C@@H]1[C@H]2CCC[C@H]2CN1C(=O)[C@@H](NC(=O)[C@@H](NC(=O)c1cnc(C(=O)NCCOCCOCCNc2cccc3c2C(=O)N(C2CCC(=O)N(C)C2=O)C3=O)cn1)C1CCCCC1)C(C)(C)C)C(=O)C(=O)NC1CC1 (some centres unmarked) [Compound 20] |  |  |  |  | no significant degradation of NS3 |  | 
CCC[C@H](NC(=O)[C@@H]1[C@H]2CCC[C@H]2CN1C(=O)[C@@H](NC(=O)[C@@H](NC(=O)c1cnc(C(=O)NCCOCCOCCNc2cccc3c2C(=O)N(C2CCC(=O)NC2=O)C3=O)cn1)C1CCCCC1)C(C)(C)C)C(=O)C(=O)NC1CC1 (stereo partly drawn) [Compound 3, N2-((S)-1-cyclohexyl-2-((S)-1-((1S,3aR,6aS)-1-((S)-1-(cyclopropylamino)-1,2-dioxohexan-3-ylcarbamoyl)hexahydrocyclopenta[c]pyrrol-2(1H)-yl)-3,3-dimethyl-1-oxobutan-2-ylamino)-2-oxoethyl)-N5-(2-(2-(2-(2-(2,6-dioxopiperidin-3-yl)-1,3-dioxoisoindolin-4-ylamino)ethoxy)ethoxy)ethyl)pyrazine-2,5-dicarboxamide] | specific reduction in steady-state abundance |  | Lenalidomide inhibited degradation of NS3 |  |  | 2620 | IC50 [4]: 2920 nM
CCC[C@H](NC(=O)[C@@H]1[C@H]2CCC[C@H]2CN1C(=O)[C@@H](NC(=O)[C@@H](NC(=O)c1cnc(C(=O)NCCOCCOCCNc2cccc3c2C(=O)N(C2CCC(=O)NC2=O)C3=O)cn1)C1CCCCC1)C(C)(C)C)C(O)C(=O)NC1CC1 (stereo partly drawn) [Compound 11, N2-((1S)-1-cyclohexyl-2-((2S)-1-((1S,3aR,6aS)-1-((3S)-1-(cyclopropylamino)-2-hydroxy-1-oxohexan-3-ylcarbamoyl)hexahydrocyclopenta[c]pyrrol-2(1H)-yl)-3,3-dimethyl-1-oxobutan-2-ylamino)-2-oxoethyl)-N5-(2-(2-(2-(2-(2,6-dioxopiperidin-3-yl)-1,3-dioxoisoindolin-4-ylamino)ethoxy)ethoxy)ethyl)pyrazine-2,5-dicarboxamide] |  |  |  | did not mediate degradation |  |  | 
